From patent EP4732839A1, “USE OF COMPOUND IN TREATMENT OF LIVER DISEASES” (priority 2023, dated 2025)
In brackets after ≈: the same amount, converted by molar mass. Several values for one entry are separate records, joined by “and”; a condition that tells them apart may be missing. Equal values may be shown once.

Key:
[1] = Liver microsome metabolic stability (human); conditions: Human liver microsomes, 1 µM compound, 1 mg/mL, NADPH, 37 °C
Description: (§4) The metabolic stability of the compounds in in vitro liver microsomes was evaluated. The procedures and steps were as follows: At 37 °C, 1 µM of the compounds was incubated in 1 mg/mL liver microsomes. The reaction system was a 0.1 M potassium phosphate buffer (pH 7.4) containing 3 mmol/L MgCl2 and 1 mmol/L NADPH. At the beginning of the reaction, the small molecules and the liver microsomes were pre-incubated at 37 °C for 10 min, and subsequently a cofactor NADPH was added to initiate the metabolic reaction. The reaction was quenched at 0 min, 5 min, 10 min, 20 min, 30 min, and 60 min using three volumes of ice-cold methanol containing an internal standard (200 nM labetalol). After incubation at room temperature for 10 min, the samples were centrifuged at 4000 rpm at 4 °C for 20 min, and the supernatants were collected, diluted with chromatography-grade purified water in a 1:1 ratio, and then subjected to quantitative analysis. […] After a 6-minute chromatographic separation on a C18 column (50 × 2.1 mm; 2.6 µm) under a gradient mobile phase of 0.1% formic acid in water, the peaks corresponding to specified ionic signals were detected. […] The detailed operation process was as follows: • 1) The compound working solution was added to all 96-well reaction plates (T0, T5, T10, T20, T30, and T60) at 10 µL/well, except the blank wells. • 2) The microsomal solution was added to all the reaction wells (T0, T5, T10, T20, T30, T60, and blank wells) at 80 µL/well. • 3) The plates were pre-incubated at 37 °C for 10 min. • 4) After pre-incubation, NADPH was added to each reaction plate at 10 µL/well to initiate the reaction. • 5) At the set end time point, a 4 °C methanol solution (containing an internal standard: 200 nM labetalol) was added to each reaction plate at 300 µL/well to quench the reaction. • 6) Each plate was sealed and shaken for 10 min. • 7) The mixture was shaken well and centrifuged at 4000 rpm at 4 °C for 20 min. • 8) 300 µL of the supernatant was collected, and HPLC-grade water was added at 300 µL/well. The mixture was well mixed and then subjected to LC-MS analysis.
(§5) The metabolic half-life (T1/2) and the metabolic clearance rate (CLint(mic)) (µL/min/mg) were calculated using a first-order kinetic equation.

in vitro = conditions: human, microsomes, pH 7.4
Description: as §4, §5

H22-luc = H22-luc orthotopic model, 3 mpk, IG, QW × 3, BLI 21 days post-dose, P < 0.0001
Description: The cells were placed in an incubator at 37 °C with 5% CO2 and passaged every 1 to 2 days depending on the cell density.
The cell concentration (H22-luc, 2.0E8/mL) was adjusted, and the cells were mixed well with Matrigel at a ratio of 1:1. The mixture was placed on ice for subsequent injection experiments, and was mixed thoroughly by shaking with Vortex before use.
• (1) The mice were weighed before surgery and anesthetized by intraperitoneal injection of avertin at 0.15 mL/10 g body weight. […] The needle was inserted into the liver at a 30-degree angle relative to the liver surface. After the needle was inserted, the needle was made parallel to the tabletop and advanced in parallel for about 3 mm. 10 µL of H22-luc cell suspension was slowly injected, and a rapid whitening (white plaque) or turbid translucent vacuolation over most of the liver lobe in the injection area was observed. • (5) After injection, a cotton swab was used to apply slight pressure at the needle insertion site while the needle was slowly withdrawn. The cotton swab was removed until no bleeding was observed. • (6) The liver lobe was gently pushed back into the abdominal cavity, and the muscle layer and skin were sutured.
The experimental data were analyzed using Graphpad Prism 8. The experimental data were expressed as mean ± SD.

[2] = 3/10/20 mpk i.g., livers collected 1 h, 2 h, 4 h post-dose
Description: (§1) C57BL/6J wild-type female mice (6 weeks old) were randomly grouped. After administration at different doses, whole blood and liver tissues of the mice were separately collected at 1 h, 2 h, and 4 h for detection of a plurality of parameters to evaluate the effect of the drugs on the liver.
(§2) Liver tissues and blood were collected at 1 h, 2 h, and 4 h after single dosing.
(§3) The supernatant was collected and stored (-20 °C); • (3) IFN-α, IP-10, IL-6, and TNF-α were detected using an ELISA kit. • (C) Remaining liver tissue-HE staining and pathological evaluation. • (D) 1/2 blood (whole blood)-liver function parameter detection: AST (aspartate aminotransferase), ALT (alanine aminotransferase/glutamate pyruvate transaminase), ALP (alkaline phosphatase), ALB (albumin), and GGT (γ-glutamyl transferase). • (E) 1/2 blood-serum preparation-reserve for ELISA.

hERG potassium channel = hERG potassium channel (Homo sapiens, UniProt Q12809); experiment: hERG whole-cell patch-clamp; assay type: cell-based; conditions: whole-cell patch-clamp; read-out: hERG (IC50)
Chain of hERG potassium channel (Q12809 whole entry): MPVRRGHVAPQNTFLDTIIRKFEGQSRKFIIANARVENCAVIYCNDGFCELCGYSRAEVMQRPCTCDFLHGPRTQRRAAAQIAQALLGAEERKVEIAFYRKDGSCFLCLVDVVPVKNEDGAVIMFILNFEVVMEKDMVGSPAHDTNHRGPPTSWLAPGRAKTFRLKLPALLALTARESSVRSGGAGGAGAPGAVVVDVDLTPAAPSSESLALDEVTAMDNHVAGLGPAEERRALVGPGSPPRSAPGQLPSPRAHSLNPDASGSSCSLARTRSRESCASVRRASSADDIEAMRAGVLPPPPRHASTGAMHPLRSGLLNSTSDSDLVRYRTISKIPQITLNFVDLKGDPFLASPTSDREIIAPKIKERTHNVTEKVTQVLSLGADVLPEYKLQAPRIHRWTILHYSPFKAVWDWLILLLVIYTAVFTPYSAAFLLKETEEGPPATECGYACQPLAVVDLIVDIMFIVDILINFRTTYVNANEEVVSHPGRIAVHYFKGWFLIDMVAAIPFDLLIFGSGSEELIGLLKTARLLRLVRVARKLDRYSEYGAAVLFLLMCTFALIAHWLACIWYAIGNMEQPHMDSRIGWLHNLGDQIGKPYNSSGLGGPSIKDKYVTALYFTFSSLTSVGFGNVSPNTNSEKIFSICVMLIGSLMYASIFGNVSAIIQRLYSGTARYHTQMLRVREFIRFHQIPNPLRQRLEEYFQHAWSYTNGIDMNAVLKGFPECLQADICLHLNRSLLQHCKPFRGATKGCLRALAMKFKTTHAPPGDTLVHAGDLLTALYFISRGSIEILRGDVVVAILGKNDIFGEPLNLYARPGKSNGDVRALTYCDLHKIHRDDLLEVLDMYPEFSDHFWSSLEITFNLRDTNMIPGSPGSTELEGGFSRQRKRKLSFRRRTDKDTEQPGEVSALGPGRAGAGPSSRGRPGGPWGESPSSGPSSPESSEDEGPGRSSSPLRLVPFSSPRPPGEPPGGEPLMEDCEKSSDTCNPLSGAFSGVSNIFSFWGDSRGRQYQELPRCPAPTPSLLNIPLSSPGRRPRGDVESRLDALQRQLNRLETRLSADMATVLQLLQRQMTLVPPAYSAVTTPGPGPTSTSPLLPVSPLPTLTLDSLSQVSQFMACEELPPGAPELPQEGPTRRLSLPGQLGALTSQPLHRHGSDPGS
Description: The rapidly activated potassium channel encoded by human ether-a-go-go-related gene (hERG) is an important ion channel involved in the formation of cardiac action potential phase 3 repolarization. Drug-induced blockade of hERG channels can lead to delayed cardiac repolarization, manifested as QT interval prolongation on the electrocardiogram, known as long QT syndrome. Drug-induced delayed ventricular repolarization may, under certain circumstances, trigger fatal arrhythmias-torsade de pointes-type ventricular tachycardia. In this study, the whole-cell patch-clamp technique (the standard method for hERG safety assessment) was employed to evaluate the inhibitory effects of the small-molecule compounds on the hERG potassium channel and to assess the risk of ventricular repolarization toxicity.

[3] = Liver microsome metabolic stability (murine); conditions: Murine liver microsomes, 1 µM compound, 1 mg/mL, NADPH, 37 °C
Description: The metabolic stability of the compounds in in vitro liver microsomes was evaluated. The procedures and steps were as follows: At 37 °C, 1 µM of the compounds was incubated in 1 mg/mL liver microsomes. The reaction system was a 0.1 M potassium phosphate buffer (pH 7.4) containing 3 mmol/L MgCl2 and 1 mmol/L NADPH. At the beginning of the reaction, the small molecules and the liver microsomes were pre-incubated at 37 °C for 10 min, and subsequently a cofactor NADPH was added to initiate the metabolic reaction. The reaction was quenched at 0 min, 5 min, 10 min, 20 min, 30 min, and 60 min using three volumes of ice-cold methanol containing an internal standard (200 nM labetalol). After incubation at room temperature for 10 min, the samples were centrifuged at 4000 rpm at 4 °C for 20 min, and the supernatants were collected, diluted with chromatography-grade purified water in a 1:1 ratio, and then subjected to quantitative analysis. […] After a 6-minute chromatographic separation on a C18 column (50 × 2.1 mm; 2.6 µm) under a gradient mobile phase of 0.1% formic acid in water, the peaks corresponding to specified ionic signals were detected. […]
as §5

Hep3B-luc = Hep3B-luc liver orthotopic xenograft mouse model; conditions: Hep3B-luc liver orthotopic tumor model, 3 mg/kg
[4] = assay type: in vivo, C57BL/6J wild-type female mice
Description: as §1, §2, §3

[5] = tested on: Peripheral blood mononuclear cells (hPBMCs); experiment: Cytokine secretion after stimulation of PBMCs; conditions: hPBMCs from 3 donors, 24 h of stimulation
[6] = Solubility in phosphate buffer at pH 7.4
physchem = conditions: phosphate buffer, pH 7.4, aqueous buffer
[7] = Liver tissue distribution after single intragastric administration; conditions: 10 mg/kg single intragastric, ICR mice; for AUC(0-t) at 24 h: mouse, in vivo, po, 10 mg/kg, area under curve at 24 h post-dose
Description: The specific regimen was as follows: Before administration, the state of the formulation for administration was inspected, and the homogeneity of the formulation was ensured by vortexing, stirring, or shaking. The theoretical dose for each mouse was calculated according to the following formula. The actual dose for each ICR mouse and the collection time for plasma and tissue samples were required to be recorded in detail in corresponding tables. Theoretical administration volume (mL) = ((Dose(mg⋅kg^−1))/(Concentration of test solution (mg⋅((mL))^−1))) × Animal body weight (kg) [formula]
Plasma sample collection: At each designated time point, about 100 µL of blood was collected from the orbit, and the collected whole blood was placed in an EDTA-K2 anticoagulation tube, inverted several times to mix thoroughly, stored on wet ice, and centrifuged (at 1500 g to 1600 g) for 10 min within 30 min to separate the plasma. The resulting plasma sample was stored at -40 °C to -20 °C for biological sample analysis.
The specific procedures for liver tissue collection were as follows: Liver tissues were collected immediately after whole blood collection. The liver tissues were collected, washed with ice-cold normal saline, dehydrated, weighed, and homogenized in 20% methanol-water at a ratio of 1:5 (w/v). The collection time of tissues and the weight of homogenized tissues were required to be recorded in detail in corresponding tables.
The plasma and various tissue homogenates were stored in a refrigerator at -40 °C to -20 °C for sample analysis. After the experiment was completed, the mice were euthanized by carbon dioxide asphyxiation or cervical dislocation. After the analysis was completed, the samples were returned to the biological sample room, and transferred to an environment at -40 °C to -20 °C for storage according to SOP-SM-001.
The corresponding pharmacokinetic parameters of plasma and liver tissues were calculated using a non-compartmental model in Phoenix WinNonlin 8.0 or later versions, and the area under curve AUC0-t (AUC0-t, the area under the concentration-time curve at 24 h post-dose) was calculated. The liver/plasma drug distribution ratio (RL/P) was then calculated.

COCCNc1nc(N)nc2ccc(Cc3ccc(CN4CCOCC4)cc3)nc12 [Compound II]
k [1]: 0.0197 L/min
half-life at 1 µM (in vitro): 35.1 min
microsomal CLint at 1 µM (in vitro): 39.5 µL/min/mg
TGI (H22-luc): 83.4%
Liver HE staining [2]: did not cause apparent pathological damage to the liver tissues
IC50 (hERG potassium channel): 4.3 µM and > 10 µM
k [3]: 0.0460 L/min
maximum body weight loss (Hep3B-luc): 5.4%
TGI (Hep3B-luc; IG, QW × 3, p < 0.05): 61.6%
AST levels ([4]; all administration groups, no statistically significant differences): exceeded the normal reference range
ALP levels ([4]; all dose groups): within the normal reference value range
GGT levels ([4]; all dose groups): significantly lower than that of the control group
ALB level ([4]; at 2 h and 4 h): significantly lower than that of the control group
ALT elevation by clinical adverse reaction grading ([4]; single administration, Grade 1 AE = ALT exceeding three times the normal value): did not result in ALT elevation to grade 1 AE
ALT ([4]; whole blood, 3/10/20 mpk i.g. single dose, 1 h, 2 h, 4 h): increased in all groups
IFN-α stimulating activity [5]: strong
IFN-α, IFN-γ, and IL-1240 secretion ([5]; 4 concentrations, compared with GS-9688): significantly stronger activity and magnitude
maximum body weight loss rate (MC38-luc; MC38-luc liver metastasis model, compound II 3 mpk IG QW × 3, PD-1 10 mpk IP BIW × 2): 3.9%
TGI (MC38-luc; MC38-luc liver metastasis model, compound II 3 mpk IG QW × 3, PD-1 10 mpk IP BIW × 2, 17 days post-dose): 63.3%
CD8+ T cells in peripheral lymph nodes (MC38-luc; flow cytometry, compared with vehicle group): no significant difference
Kuffer cells in the liver tissue (MC38-luc; flow cytometry, compared with vehicle group and PD-1 antibody group): significantly induced an increase
solubility improvement compared with N01(D18) [6]: about 10 fold
solubility (physchem): 1010 µM (≈ 413 µg/mL)
AUC0-t ratio (liver/plasma) [7]: 114
liver/plasma drug distribution ratio [7]: 114 fold
Drug concentration ratio (liver/plasma) ([7]; 0.25h): 610
Mean drug concentration (liver) ([7]; 0.25h): 30980 ng/g
Mean drug concentration (plasma) ([7]; 0.25h): 50.8 ng/mL
Drug concentration ratio (liver/plasma) ([7]; 1 h): 134
Mean drug concentration (liver) ([7]; 1 h): 8780 ng/g
Mean drug concentration (plasma) ([7]; 1 h): 65.6 ng/mL
Drug concentration ratio (liver/plasma) ([7]; 4h): 71.3
Mean drug concentration (liver) ([7]; 4h): 1990 ng/g
Mean drug concentration (plasma) ([7]; 4h): 27.9 ng/mL
Drug concentration ratio (liver/plasma) ([7]; 24h): 79.4
Mean drug concentration (liver) ([7]; 24h): 327 ng/g
Mean drug concentration (plasma) ([7]; 24h): 4.12 ng/mL
AUC(0-t) at 24 h ([7]; AUC0-t (liver)): 58100 ng·h/mL
AUC(0-t) at 24 h ([7]; AUC0-t (plasma)): 510 ng·h/mL
